Results on one compound are retold here after US20190038597A1, “PREVENTION OF VASCULAR AND CARDIAC FIBROSIS VIA IRE1ALPHA INHIBITION” (McMaster University, priority 2017, published 2019).

One assay relates to VSMCs. The assay is described as follows: Picro-Sirius Red assay of collagen synthesis in VSMCs. The class given is cell-based, rat. The protocol: VSMCs were cultured in DMEM/F12 containing 1% FBS. Confluent cells were treated with L-ascorbic acid-2-phosphate (100 μg/ml) and either TGF-β1 (5 ng/ml) or Ang II (1 μM). (A) Agarose gel for assessment of TGF-β1-induced XBP1 splicing in VSMCs after 24 h. (B) Picro-Sirius Red assay for measurement of collagen deposition induced by combined TGF-β1 and AA2P treatment after 72 h, and inhibition by 4μ8c and STF-083010. (C) Western blot for assessment of collagen chaperone expression after treatment of TGF-β1 and 4μ8c for 48 h. *, p<0.05. (D) Measurement of Ang II-induced collagen production and inhibition by 4μ8c and STF-083010 after 72 h.
VSMCs were isolated from the aortas of 5-week old WKY rats using the explant method^29. The thoracic aorta was removed from the animal and placed in ice-cold 5× Antibiotics-Antimycotics solution (ThermoFisher). The adventitia was gently removed and the aorta was cut longitudinally. The endothelial layer was removed by gentle scraping with forceps. The aorta was cut into 3 mm^2 squares and placed on a 6 well plate in DMEM/F12 medium containing 10% fetal bovine serum (FBS). Explants were incubated undisturbed in a 5% CO2 incubator at 37° C. for 1 week and then passaged. Sprague-Dawley renal fibroblasts were purchased (Cell Biologics) and cultured in low glucose DMEM/F12 medium containing 10% FBS, streptomycin (100 μgimp, and penicillin (100 U/ml, Invitrogen, Burlington, ON). Cells between passages 5 and 10 were used for experiments. Cells were cultured in medium containing 1% FBS overnight before treatment.
Collagen synthesis was measured using a Picro-Sirius Red-based assay as previously described^30. Briefly, cells cultured on a 96 well plate were fixed in methanol for 10 minutes at −20° C. Cells were washed once with PBS and incubated with Picrosirius Red stain (0.1% Direct Red 80 in saturated picric acid) for 1 h at room temperature. After the staining solution was removed, the cells were washed three times with 0.1% acetic acid and then imaged. The dye was then eluted with 0.1 N NaOH for 10 minutes on a rocking platform. Absorbance at 540 nm was measured using a Spectramax Plus Microplate Reader (Molecular Devices).
Cells were co-treated with either 4μ8c or S′TF-083010 to inhibit IRE1α endonuclease activity. TGF-β1 induced XBP1 splicing after 24 h, which was blocked by co-treatment with 4μ8c (FIG. 2A). Collagen production was measured using a Picro-Sirius Red-based colorimetric assay. TGF-β1 combined with AA2P induced collagen synthesis in the VSMCs, which was inhibited by co-treatment with 4μ8c or STF-083010 (FIG. 2B).

For assay [1], the system named is SHR/L-NAME model of hypertension. The assay is described as follows: Collagen content / fibrosis of vessels in L-NAME-treated SHRs. The class given is in vivo, rat. The following applies: 18 days. As for the experimental part: 12-14 week old male SHRs were randomized to receive vehicle, L-NAME (50 mg/L) or L-NAME and 4μ8c (2.5 mg/kg/day i.p.) for 18 days. Aortas and carotid arteries were removed at sacrifice for mechanical and structural analysis. (A) Picro-Sirius Red staining of aorta and carotid artery sections (B) Determination of soluble collagen content in aorta and carotid arteries by Picro-Sirius Red-based assay. Stress-strain curves (C,E), elastic modulus-stress lines (D,F) and the slope of the elastic modulus-stress lines (G,H) were calculated. Data is presented as mean±SEM. *, p<0.05 vs. NT; #, p<0.05 vs. L-NAME. N≥4 per group; 2-5 segments of the thoracic aorta were analyzed per animal. In C to F, lines of best fit are bound by 95% confidence intervals (dotted lines). *, p<0.05.
12-14 week old male SHRs were used to determine the effect of pharmacological IRE1α inhibition on L-NAME-induced vascular stiffening. They were maintained on a 12-hour light-dark cycle with rat chow and water ad libitium. Animals were implanted with radio-telemetry devices (Data Science International, St. Paul, Minn., USA) one week before the start of the study. […]
The wet weight of aortic tissues was determined. […]
(§1) Tissues were fixed in 4% paraformaldehyde and subsequently embedded in paraffin. […] Collagen area density was calculated by dividing the PSR-stained area by the total area of the vessel.

Assay [2] has the same test system. The assay is described as follows: Cardiac hypertrophy and fibrosis in L-NAME-treated SHRs. Type of assay: in vivo, rat. As for the experimental part: 12-14 week old male SHRs were randomized to receive vehicle, L-NAME (50 mg/L) or L-NAME and 4μ8c (2.5 mg/kg/day i.p.) for 18 days. (A) Cardiac hypertrophy measured using heart weight to body ratio. (B) Quantification of Picro-Sirius Red-stained area in heart tissue. (C) Picro-Sirius Red staining of transverse heart sections. Bar: 4×, 500 μm; 20×, 200 μm. Data is presented as mean±SEM. *, p<0.05 vs. NT. #, p<0.05 vs L-NAME.
12-14 week old male SHRs were used to determine the effect of pharmacological IRE1α inhibition on L-NAME-induced vascular stiffening. They were maintained on a 12-hour light-dark cycle with rat chow and water ad libitium. Animals were implanted with radio-telemetry devices (Data Science International, St. Paul, Minn., USA) one week before the start of the study. Animals were randomized into one of three groups (n=6 per group): 1) No treatment, 2) L-NAME (50 mg/L in drinking water, Sigma-Aldrich), or 3) L-NAME+4μ8c (2.5 mg/kg/day i.p., Millipore). 4μ8c was administered in a vehicle of 10% DMSO, 10% Tween-80 and 80% normal saline. Animals in Group 2 received daily injections of the vehicle. All animals were fed a normal chow diet. […]
as §1

As for `Cc1cc(=O)oc2c(C=O)c(O)ccc12` [4μ8c, 7-Hydroxy-4-methyl-2-oxo-2H-chromene-8-carbaldehyde], the “collagen synthesis induced by TGF-β1 combined with AA2P” value in the assay with VSMCs (72 h, co-treatment, FIG. 2B) is on record as “inhibited”. Besides, in the assay on VSMCs (Ang II (1 μM) 72 h, FIG. 2D), the “collagen synthesis induced by Ang II” value is “blocked”. Also, the “Collagen content in homogenized aortic tissue” value in assay [1] (L-NAME+4μ8c group, PSR-based colorimetric assay) is listed as 47.10±2.88 μg/mg tissue. The “fibrosis and vascular stiffness in the hypertensive animals” value in assay [1] (SHR/L-NAME, 4μ8c 2.5 mg/kg/day i.p.) is given as “reduced”. Further, the “fibrosis in the left and right ventricles by PSR staining” value in assay [2] (4μ8c-treated animals vs L-NAME group, FIGS. 7B and 7C) is on record as “significantly reduced”. Besides, in assay [2] (L-NAME+4μ8c group, 18 days, FIG. 7A), the “cardiac hypertrophy (heart weight to body weight ratio)” value is on record as 4.293±0.438 mg HW/g BW.
